This is an account of results in ChEMBL document CHEMBL5214939, “Design, synthesis and biological evaluations of novel farnesoid X receptor (FXR) agonists” (Bioorg Med Chem Lett, 2022).

Structures are written as SMILES. Calls of active or inactive are those of the source. The calls are words filed in the database; no cut-off is given here. Bounds are passed on as bounds.

One data set deals with T1, Bile acid receptor (Homo sapiens, UniProt Q96RI1).
T1 sequence (Q96RI1 whole entry): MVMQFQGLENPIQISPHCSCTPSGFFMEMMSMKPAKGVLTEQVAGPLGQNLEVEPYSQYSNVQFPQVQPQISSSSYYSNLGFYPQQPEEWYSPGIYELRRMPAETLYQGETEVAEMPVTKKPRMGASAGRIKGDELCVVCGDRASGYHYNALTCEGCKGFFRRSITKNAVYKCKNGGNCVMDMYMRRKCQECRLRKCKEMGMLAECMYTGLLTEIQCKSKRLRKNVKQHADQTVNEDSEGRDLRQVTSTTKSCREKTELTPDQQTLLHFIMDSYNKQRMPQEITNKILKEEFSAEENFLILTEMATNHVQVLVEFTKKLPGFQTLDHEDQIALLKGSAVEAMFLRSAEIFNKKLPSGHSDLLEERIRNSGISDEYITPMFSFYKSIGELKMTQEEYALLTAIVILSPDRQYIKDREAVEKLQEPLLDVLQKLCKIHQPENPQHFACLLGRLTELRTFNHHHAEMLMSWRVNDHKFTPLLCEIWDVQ
In words: Agonist activity at FXR in HEK293T cells assessed as transcriptional activity by measuring […] by luciferase reporter assay. Type of data set: cell-based.

For data set [1], the species on record is Mus musculus. The data set is described as follows: Protection against Con-A induced autoimmune hepatitis mouse model assessed as reduction in ALT level. Type of data set: functional, organism-based.
The species entered for data set [2] is Mus musculus. The data set is described as follows: Protection against Con-A induced autoimmune hepatitis mouse model assessed as reduction in AST level. Type of data set: functional, organism-based.
Data set [3] can be described thus: Half life in mouse at 20 mg/kg, po. Type of data set: ADME, organism-based. The note with it: in vivo.
The nature of data set [4]: Cmax in mouse at 20 mg/kg, po. Type of data set: ADME, organism-based. The arrangement: dose 20 mg/kg, route po. The conditions noted are these: in vivo.
Data set [5] is described as follows: Clearance in mouse at 20 mg/kg, po or 5 mg/kg, iv. Type of data set: ADME, organism-based. The conditions noted are these: in vivo.
Data set [6] can be described thus: Oral bioavailability in mouse at 20 mg/kg. Type of data set: ADME, organism-based. The conditions noted are these: in vivo.
The nature of data set [7]: Tmax in mouse at 20 mg/kg, po. Type of data set: ADME, organism-based. The conditions noted are these: in vivo.
The nature of data set [8]: AUC (0 to t) in mouse at 5 mg/kg, iv. Type of data set: ADME, organism-based. Details: dose 5 mg/kg, route iv. The note with it: in vivo.
A short description of data set [9]: AUCinfinity in mouse at 20 mg/kg, po. Type of data set: ADME, organism-based. Details: time infinity, dose 20 mg/kg, route po. The conditions noted are these: in vivo.
The nature of data set [10]: AUC (0 to t) in mouse at 20 mg/kg, po. Type of data set: ADME, organism-based. Details: dose 20 mg/kg, route po. The note with it: in vivo.
Data set [11] can be described thus: AUCinfinity in mouse at 5 mg/kg, iv. Type of data set: ADME, organism-based. The arrangement: time infinity, dose 5 mg/kg, route iv. The note with it: in vivo.
The nature of data set [12]: Cmax in mouse at 100 mg/kg, po. Type of data set: ADME, organism-based. Details: dose 100 mg/kg, route po. The conditions noted are these: in vivo.
Data set [13] can be described thus: Clearance in mouse at 100 mg/kg, po or 5 mg/kg, iv. Type of data set: ADME, organism-based. The conditions noted are these: in vivo.
Data set [14] in a line: AUCinfinity in mouse at 100 mg/kg, po. Type of data set: ADME, organism-based. The arrangement: time infinity, dose 100 mg/kg, route po. The conditions noted are these: in vivo.
A short description of data set [15]: AUC (0 to t) in mouse at 100 mg/kg, po. The conditions noted are these: in vivo. Details: dose 100 mg/kg, route po. Type of data set: ADME, organism-based.
Data set [16] is described as follows: Tmax in mouse at 100 mg/kg, po. Type of data set: ADME, organism-based. The conditions noted are these: in vivo.
Data set [17] can be described thus: Half life in mouse at 100 mg/kg, po. Type of data set: ADME, organism-based. The note with it: in vivo.
The nature of data set [18]: Oral bioavailability in mouse at 100 mg/kg. Type of data set: ADME, organism-based. The conditions noted are these: in vivo.

With `CC(C)c1snc(-c2c(Cl)cccc2Cl)c1COc1ccc(N(C)Cc2ccc(C(=O)O)s2)c(C(F)(F)F)n1`, on Bile acid receptor, the EC50 turned out to be 510 nM.

On to `CC(C)c1snc(-c2c(Cl)cccc2Cl)c1COc1ccc(N(C)CC2CCCC(C(=O)O)C2)c(C(F)(F)F)n1` (centres undefined), for which the EC50 on Bile acid receptor is more than 30000 nM.

Consider `CC(C)c1snc(-c2c(Cl)cccc2Cl)c1COc1ccc(/C=C/c2cccc(C(=O)O)c2)c(Cl)c1`, for which the EC50 on Bile acid receptor is 570 nM.

For the compound `CN(Cc1ccc(C(=O)O)cc1)c1ccc(OCc2c(-c3c(Cl)cccc3Cl)nsc2C2CC2)cc1C(F)(F)F`, at Bile acid receptor, the EC50 was determined as 410 nM. For the same compound, the outcome in the data set filed under Mus musculus [1] was Active.

As for `CN(Cc1ccc(C(=O)NO)cc1)c1ccc(OCc2c(-c3c(Cl)cccc3Cl)nsc2C2CC2)nc1C(F)(F)F`, on Bile acid receptor, the EC50 was more than 30000 nM.

Take `CN(Cc1ccc(C(=O)O)cc1)c1ccc(OCc2c(-c3c(Cl)cccc3Cl)nsc2C2CC2)nc1C(F)(F)F`: the EC50 on Bile acid receptor worked out at 310 nM. In addition, in the data set filed under Mus musculus [1], the result was Active.

Regarding `CN(Cc1cccc(C(=O)NO)c1)c1ccc(OCc2c(-c3c(Cl)cccc3Cl)nsc2C2CC2)nc1C(F)(F)F`, the EC50 on Bile acid receptor stood at 1090 nM.

Take `CCN(Cc1ccc(C(=O)O)cc1)c1ccc(OCc2c(-c3c(Cl)cccc3Cl)nsc2C(C)C)nc1C(F)(F)F`: the EC50 at Bile acid receptor was 2160 nM.

`CC(C)c1snc(-c2c(Cl)cccc2Cl)c1COc1ccc(N(C)Cc2ccc(C(=O)O)cc2)c(C(F)(F)F)n1`: the result in the data set listed under Mus musculus [2] and in the data set listed under Mus musculus [1] was Active. Further, the EC50 on Bile acid receptor was determined as 350 nM.

The compound `CC(C)c1onc(-c2c(Cl)cccc2Cl)c1COc1ccc(/C=C/c2cccc(C(=O)O)c2)c(Cl)c1` returned a t1/2 in [3] of 1.53 h. This compound also registered a Cmax in data set [4] of 4787 ng/mL. In [5], this compound showed a CL of 26.3 mL/min/kg. The same compound displayed a F in data set [6] of 42.81%. For the same compound, the Tmax in data set [7] stood at 0.5 h. In addition, the values for the AUC(0-t) in data set [8] and in [10] were 3140 ng·h/mL and 85200 ng·h/mL, respectively. In addition, the AUC stood at 85283 ng·h/mL in [9] and 3162 ng·h/mL in data set [11].

On to `CN(Cc1cccc(C(=O)O)c1)c1ccc(OCc2c(-c3c(Cl)cccc3Cl)nsc2C2CC2)nc1C(F)(F)F`, for which the peak level in data set [12] (Cmax) was 40200 ng/mL. The result in the data set filed under Mus musculus [2] and in the data set filed under Mus musculus [1] was Active. In addition, in data set [13], the CL was 14.3 mL/min/kg. In addition, the AUC in [14] was found to be 5415 ng·h/mL; in [11], 5822 ng·h/mL. Also, the AUC(0-t) in data set [15] is 5370 ng·h/mL; in data set [8], 5760 ng·h/mL. Also, in data set [16], the Tmax was 0.5 h. Besides, the EC50 at Bile acid receptor was 270 nM. Besides, the half-life in data set [17] was 2.6 h. This compound had a F in data set [18] of 73%.
